Assay results published in article PMC7153278, “Discovery of Membrane-Bound Pyrophosphatase Inhibitors Derived from an Isoxazole Fragment” (ACS Medicinal Chemistry Letters, 2020).

Target: Thermotoga maritima mPPase (TmPPase) (Thermotoga maritima, UniProt Q9S5X0)
Test: TmPPase inhibition assay (96-well plate, orthophosphate determination)
Format: biochemical
Details: for IC50 [CI95%] / IC50: purified TmPPase; for biological activity (in words): TmPPase; for LE (ligand efficiency): computed using the pIC50 and the Heavy Atom Count (LEHA) normalization method, Discovery Studio; for fold loss in activity compared to the carboxylic acids: 2-bromophenyl carboxylates 25 and 26 versus 5 and 23; call rule not given here
Procedure: The inhibition assay was measured in 96 well plate assay as previously reported.5,6 Briefly, 1 µL of purified TmPPase (13 mg/mL) was reactivated in 99 µL of reactivation buffer (20 mM 2-(N-morpholino) ethanesulfonic acid (MES) pH 6.5, 3.5% (v/v) glycerol, 2 mM dithiothreitol (DTT), 4.5% dodecyl maltoside (DDM) and 12 mg/mL L-α-phosphatidylcholine from soybean) and incubated at 55 °C for 15 min. For the assay, to each tube strips, 0.2 µL of the reactivated enzyme was added to 14.8 µL of reaction buffer (200 mM Tris-Cl pH 8.0, 8.0 mM MgCl2, 333 mM KCl, and 67 mM NaCl) and 25 µL of inhibitor. The reaction mixtures were sealed with an adhesive sealing sheet (Thermo Scientific) and incubated at 71 °C for 5 min. The reactions were started with the addition of 10 µL of 2 mM sodium pyrophosphate, further incubation at 71 °C for 5 min and stopped by placing the reaction mixtures on ice for 10 min. The color development was done with the addition of ammonium heptamolybdate + ascorbic acid solution on ice for 10 min and then 90 µL of arsenic solution, at room temperature, for a minimum of 30 min. 180 µL of each reaction mixtures was then transferred into a clear 96 well polystyrene microplate and the absorbance was measured at 860 nm using a microplate spectrophotometer (MultiSkan Go, Thermo Scientific). The pilot inhibitor screening of 16 phosphate-mimicking fragments was done at 100 μM inhibitor concentration. Further screening was done with three different concentrations; 1 μM, 5 μM and 50 μM for soluble compounds, and 1 μM, 5 μM, and 20 μM for sparingly soluble compounds.6 The best hits were validated using 8 concentrations in triplicate in TmPPase.
The potent hits 12k and 12l compounds were then tested on the P. falciparum (PfPPase-VP1) membrane fractions expressed in baculovirus-infected insect cells (the expression method and further enzyme analysis will be described in more detail elsewhere). Briefly, to each tube strips, 2.4 µL of PfPPase-VP1 membrane fraction (5 mg/mL) was added into 12.6 µL of reaction buffer (200 mM Tris-Cl pH 8.0, 8.0 mM MgCl2, 333 mM KCl, 67 mM NaCl, 3.3 mM NaF, and 17 μM Gramicidin D) and 25 µL of inhibitor. The reaction mixtures were incubated at 30 °C for 5 min and the assay was started by the addition of 10 µL of 2 mM sodium pyrophosphate and further incubation at 30 °C for 10 min. The reaction termination and color development were done as before.
The in vitro anti-plasmodial activity assay strain 3D7 was maintained in culture as described previously.7 Briefly, parasites were cultured in O+ human erythrocytes at 5% haematocrit in RPMI - 1640 medium supplemented with 0.5% Albumax II (Gibco, Carlsbad, CA, USA), 200 μM hypoxanthine (Sigma, St. Louis, MO, USA) and 20 μg/mL gentamycin (Gibco). Parasites were synchronized with the sorbitol method as described. 8 Test compound was dissolved in DMSO to make a stock solution of 10 mM. Two -fold serial dilutions of the test compound were made in the culture medium to cover the range of 400 µM – 400 nM. Fifty microliters of each dilution were mixed in 96 well plate with 150 µL of 2% haematocrit of 0.5% parasitemia (ring stage). DMSO concentration in the highest compound concentration w as 0.1%. After 72 h incubation at 37 °C, the parasite growth was quantified using fluorescent SYBR Green I ® -based assay as described. 9 The half-maximal inhibitory concentration (IC 50) of the test compound was assessed using the non-linear regression fit model in Prism 7 (GraphPad Software). The potent anti-malarial drug, artemisinin, was use in parallel as a positive control. Each concentration of the test compound was tested in duplicate and the assay was repeated three times. The mean and standard deviation of the three repeats were used to estimate the IC50.
IC50 determinations were done using R 3.6.110 and the n-parameter logistic regression (nplr) package11 version 0.1-7. In this package, the weighted nplr, given x (compound concentrations) and […]

[1] = 95% confidence interval in square brackets
[2] = IC50 [CI95%] (µM), unrounded values of the molecular formula strings file
[3] = IC50 [CI95%], 95% confidence interval in square brackets

Sequence of Thermotoga maritima mPPase (TmPPase) (Q9S5X0 whole entry): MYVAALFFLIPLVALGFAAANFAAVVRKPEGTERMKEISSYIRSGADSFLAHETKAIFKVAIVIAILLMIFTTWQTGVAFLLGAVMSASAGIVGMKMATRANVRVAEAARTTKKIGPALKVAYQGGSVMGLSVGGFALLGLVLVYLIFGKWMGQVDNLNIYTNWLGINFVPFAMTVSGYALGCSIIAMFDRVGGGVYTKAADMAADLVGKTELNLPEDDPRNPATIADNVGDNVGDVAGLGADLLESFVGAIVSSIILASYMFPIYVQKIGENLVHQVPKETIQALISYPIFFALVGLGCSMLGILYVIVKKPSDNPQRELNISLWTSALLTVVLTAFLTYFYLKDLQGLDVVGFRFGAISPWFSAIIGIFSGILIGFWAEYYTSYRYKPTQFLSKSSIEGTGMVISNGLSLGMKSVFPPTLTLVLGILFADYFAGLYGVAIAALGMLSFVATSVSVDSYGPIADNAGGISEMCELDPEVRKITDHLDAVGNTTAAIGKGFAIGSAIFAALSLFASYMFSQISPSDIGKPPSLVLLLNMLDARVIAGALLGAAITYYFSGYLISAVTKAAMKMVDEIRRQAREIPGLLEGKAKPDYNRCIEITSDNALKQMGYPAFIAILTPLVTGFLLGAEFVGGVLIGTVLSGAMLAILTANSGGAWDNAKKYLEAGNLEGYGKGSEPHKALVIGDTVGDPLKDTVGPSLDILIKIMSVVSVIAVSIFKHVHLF

CCOC(=O)c1cc(-c2csc(CS(C)(=O)=O)n2)on1 [SI-13]
IC50 [CI95%] [1]: Inactive

O=C(O)c1cc(-c2ccccc2)on1 [Compound 11a]
biological activity (in words): inactive

CC(C)(C)c1cc(C(=O)Nc2nccs2)cc(C(C)(C)C)c1 [Compound 13]
LE (ligand efficiency): 0.20

Cc1nc(-c2cc(C(=O)Oc3ccccc3Br)no2)cs1 [Compound 25]
fold loss in activity compared to the carboxylic acids: 27 fold

Nc1ccc(CO)c(B(O)O)c1 [SI-1]
IC50 [CI95%] [1]: Inactive

CCOC(=O)c1cc(-c2ccccc2)on1 [Compound 10a]
IC50 [CI95%] [1]: Inactive

COc1ccc(-c2cc(C(=O)O)no2)cc1S(=O)(=O)N1CCOCC1 [SI-24]
IC50 [CI95%] [1]: Inactive

Cc1cccc(-c2cc(C(=O)Oc3ccccc3Br)no2)c1 [Compound 12i]
LE (ligand efficiency): 0.23

CC(C)(C)c1cc(C(=O)Nc2ccc(S(N)(=O)=O)cc2)cc(C(C)(C)C)c1 [Compound 14]
LE (ligand efficiency): 0.16

O=C(Oc1ccccc1Br)c1cnc(-c2ccccc2)s1 [Compound 26]
fold loss in activity compared to the carboxylic acids: 1.6 fold | LE (ligand efficiency): 0.20

CCOC(=O)c1cc(-c2ccc(OC)c(S(=O)(=O)Nc3ncccc3C)c2)on1 [SI-18]
IC50 [CI95%] [1]: Inactive

CCOC(=O)c1cc(-c2ccc(OC)c(S(=O)(=O)Nc3cc(C)on3)c2)on1 [SI-17]
IC50 [2]: 240 µM | IC50 [3]: 240 µM

CCOC(=O)c1cc(-c2ccc([N+](=O)[O-])cc2)[nH]n1 [SI-51]
IC50 [CI95%] [1]: Inactive

Cc1cc(C)cc(-c2cc(C(=O)Oc3ccccc3)no2)c1 [Compound 27]
LE (ligand efficiency): 0.20 | fold loss of inhibition on removing the bromine atom (versus 12k): 3.6 fold

CCOC(=O)c1cc(-c2ccc(OC)c(S(=O)(=O)N3CCCc4ccccc43)c2)on1 [SI-20]
IC50 [CI95%] [1]: Inactive

CC(C)(C)c1cc(C(O)CC(=O)NN)cc(C(C)(C)C)c1 (centres unmarked) [SI-44]
IC50 [CI95%] [1]: Inactive

CC(C)(C)c1cc(CCC(=O)O)cc(C(C)(C)C)c1 [Compound 20]
IC50 [CI95%] [1]: Inactive

CC(C)(C)c1cccc(-c2cc(C(=O)Oc3ccccc3Br)no2)c1 [Compound 12j]
LE (ligand efficiency): 0.20

O=C(O)CS(=O)(=O)c1ccccc1[N+](=O)[O-] [SI-4]
IC50 [CI95%] [1]: Inactive

CCOC(=O)c1cc(-c2ccc(OC)c(S(=O)(=O)Nc3ccc(Cl)cc3)c2)on1 [SI-33]
IC50 [2]: 280 µM | IC50 [3]: 280 µM

CCOC(=O)c1cc(-c2ccc(OC)c(S(=O)(=O)N3CCOCC3)c2)on1 [SI-23]
IC50 [CI95%] [1]: Inactive

CCOC(=O)c1cc(-c2ccccc2C(=O)OC)on1 [Compound 10b]
IC50 [CI95%] [1]: Inactive

O=C(O)c1cnc(-c2ccccc2)s1 [Compound 23]
LE (ligand efficiency): 0.32

O=C(Oc1ccccc1Br)c1cc(-c2ccc([N+](=O)[O-])cc2)on1 [Compound 12h]
IC50 [2]: 19.6 µM | IC50 [3]: 20 µM | LE (ligand efficiency): 0.19

CCOC(=O)c1cc(-c2csc(-c3cccc(Cl)c3)n2)on1 [SI-15]
IC50 [CI95%] [1]: Inactive

CCOC(=O)c1cc(-c2csc(CS(=O)(=O)c3ccccn3)n2)on1 [SI-14]
IC50 [CI95%] [1]: Inactive

CCOC(=O)c1cc(-c2ccc(OC)c(S(=O)(=O)NC3CCCc4ccccc43)c2)on1 (centres unmarked) [SI-19]
IC50 [2]: 29.1 µM | IC50 [3]: 29 µM | LE (ligand efficiency): 0.14

CC(C)(C)c1cc(C(=O)Nc2ccccc2Br)cc(C(C)(C)C)c1 [Compound 15]
LE (ligand efficiency): 0.18

CCOC(=O)c1cc(-c2ccccc2)[nH]n1 [SI-50]
IC50 [CI95%] [1]: Inactive

O=C(O)c1ccc2c(c1)B(O)OC2 [SI-3]
IC50 [CI95%] [1]: Inactive

CCOC(=O)c1cc(-c2cccc(C)c2)on1 [Compound 10i]
IC50 [CI95%] [1]: Inactive

CCOC(=O)c1cc(-c2ccc(OC)c(S(=O)(=O)N3CC(=O)Nc4ccccc43)c2)on1 [SI-21]
IC50 [CI95%] [1]: Inactive

CC(C)(C)c1cc(CO)cc(C(C)(C)C)c1 [SI-46]
IC50 [CI95%] [1]: Inactive

CC1(C)CS(=O)(=O)N(c2ccc(S(=O)(=O)Cl)cc2)C1=O [SI-5]
IC50 [CI95%] [1]: Inactive

CCOC(=O)c1cc(-c2ccc([N+](=O)[O-])cc2)on1 [Compound 10h]
IC50 [CI95%] [1]: Inactive

CC(C)(C)c1cc(C(N)=O)cc(C(C)(C)C)c1 [SI-43]
IC50 [CI95%] [1]: Inactive

CC(C)(C)c1cc(C(=O)OCCN2CCOCC2)cc(C(C)(C)C)c1 [SI-49]
IC50 [2]: 340 µM | IC50 [3]: 340 µM

CC(=O)Nc1ccc(S(=O)(=O)NC(CO)C(=O)O)cc1 (centres unmarked) [SI-10]
IC50 [CI95%] [1]: Inactive

Nc1ccc(S(=O)(=O)NCC(=O)O)cc1 [SI-8]
IC50 [CI95%] [1]: Inactive

CC(C)(C)c1cc(C(=O)NCC(=O)O)cc(C(C)(C)C)c1 [Compound 19]
IC50 [CI95%] [1]: Inactive

COc1ccc(-c2cc(C(=O)O)no2)cc1S(=O)(=O)N1CCCC1 [SI-28]
IC50 [CI95%] [1]: Inactive

CCOC(=O)c1cc(-c2ccc(OC)c(S(=O)(=O)N3CCOc4ccccc43)c2)on1 [SI-22]
IC50 [CI95%] [1]: Inactive

CCOC(=O)c1cc(-c2ccc(OC)c(S(=O)(=O)Nc3ccc(F)cc3Cl)c2)on1 [SI-29]
IC50 [2]: 180 µM | IC50 [3]: 180 µM

Nc1nnnn1CC(=O)O [SI-11]
IC50 [CI95%] [1]: Inactive

O=C(O)c1csc(-c2ccc(C(F)(F)F)cc2)n1 [SI-52]
IC50 [CI95%] [1]: Inactive

Cc1ccc(-c2cc(C(=O)Oc3ccccc3Br)no2)cc1C [SI-54]
IC50 [2]: 17.4 µM | IC50 [3]: 17 µM | LE (ligand efficiency): 0.20

CCOC(=O)c1cc(-c2ccc(OC)c(S(=O)(=O)Nc3ccc(Cl)cc3F)c2)on1 [SI-32]
IC50 [2]: 122 µM | IC50 [3]: 122 µM

O=c1[nH]c2ccc(S(=O)(=O)CCO)cc2o1 [Compound 2]
LE (ligand efficiency): 0.27

O=C(O)c1cc(-c2ccc([N+](=O)[O-])cc2)on1 [Compound 11h]
biological activity (in words): did not lead to the desired activity

CCOC(=O)c1cc(-c2cccc(C(C)(C)C)c2)on1 [Compound 10j]
IC50 [2]: 1210 µM | IC50 [CI95%] [1]: Slightly active

O=C(Oc1ccccc1Br)c1cc(-c2ccc([N+](=O)[O-])cc2)[nH]n1 [SI-53]
IC50 [CI95%] [1]: Slightly

CCOC(=O)c1cc(-c2ccc(OC)c(S(=O)(=O)Nc3ccc(F)c(Cl)c3)c2)on1 [SI-31]
IC50 [2]: 58 µM | IC50 [3]: 58 µM

CC(C)(C)c1cc(C(=O)NCCN2CCOCC2)cc(C(C)(C)C)c1 [SI-48]
IC50 [CI95%] [1]: Inactive
